Reference: patent US11060153B2, “Fluorescence amplification method for forward genetic discovery of factors in human mRNA degradation” (Yale University, priority 2016, dated 2021)

Columns and labels:
human NMD [1] = test: CRISPR-based forward genetic screen of the GeCKO-LtCRISPR sgRNA library in "green" Fireworks cells (FACS enrichment rounds, deep sequencing of sgRNAs); assay type: cell-based; details: for sgRNA abundance (%): deep sequencing reads for the sgRNA in the enriched cell population / all reads x 100, round 2, "green" Fireworks cells; for sgRNA enrichment (2nd round): reads in the enriched cell population / reads in total cells at the beginning of the 2nd round, measure of increased PTC(+) reporter fluorescence
Method: 1.8×10^8 (6×15 cm plates) “green” Fireworks cells were lentivirally transduced with the blasticidin-resistant GeCKO-LtCRISPR viral library (Shalem et al., Science 2014, 343:84-87) using 4.0 μm/ml of polybrene and propagated for 8-9 days in DMEM media supplemented with 10% FBS and 120 μm/ml hygromycin, 0.3 μg/ml puromycin and 3.0 μm/ml blasticidin. NMD-deficient cell populations (2×10^5 cells) were isolated from 4×10^8 transduced cells using a Bio-Rad S3e cell sorter (100 μm nozzle) and their genomic DNA was phenol-extracted. sgRNAs pools were PCR-amplified using RandomF (5′-[…] AACACCG-3′) (SEQ ID NO: 6) and RandomR (5′-[…] TAAAAC-3′) (SEQ ID NO: 7) primers and Gibson-cloned into the BsmBI-inearized LentiCRISPR (Shalem et al., Science 2014, 343:84-87) vector to obtain a lentiviral library (represented by 1.5×10^8 independent transformants) for the next enrichment round (FIG. 5C). Three rounds of GeCKO Lt-CRISPR library enrichment were conducted; 1.4×10^8 and 1.2×10^8 cells were sorted in the 2nd and 3rd rounds, respectively. sgRNAs obtained from the 2nd round were deep-sequenced and ranked (Table 1) according to their (i) overall abundance in the enriched sgRNA pool and (ii) enrichment over the starting sgRNA population in this round (since successful enrichment increases both of these numbers).
The Fireworks system was tested with the CRIPR-based knockout screening using the lentiviral GeCKO-lentiCRISPR sgRNA library (Shalem et al., Science 2014, 343:84-87), which contains 64,751 sgRNAs targeting 18,080 human genes. Ease of amplification of chromosomally-integrated sgRNAs by PCR allows multiple rounds of sgRNA library enrichment (FIG. 5C) as sgRNAs are iteratively re-transduced into the original Fireworks cell line after the each round of FACS selection in a SELEX-like (Tuerk and Gold, Science 1990, 249:505-510) manner. Fireworks-driven FACS throughput permits completion of one FACS cycle of genome-wide GeCKO library screening with nearly 800-fold library coverage in less than one hour. […] Importantly, sgRNA-specific effects are amplified, whereas cell-specific fluorescence noise is completely reset at the beginning of each sgRNA enrichment round (FIG. 5C), effectively eliminating false-positives arising from spontaneous and lentiviral insertion-induced (and therefore sgRNA-independent) mutations affecting reporters or the NMD pathway. An increase in the population of cells with a defect in NMD becomes evident during FACS rounds 2 and 3 of sgRNA library enrichment, as shown in FIG. 5D for the GeCKO-lentiCRISPR (Shalem et al., Science 2014, 343:84-87) library in the “green” Fireworks cell line. Here, sorting gates were chosen so as to collect no more than 0.16% of the negative cell population.
The pool of sgRNAs isolated from round 2 (FIG. 5C, 5D) of NMD-deficient population enrichment was deep sequenced to determine (i) the overall abundance of each sgRNA in the enriched pool and (ii) the enrichment factor for each surviving sgRNA over the starting sgRNA pool at this round. Here, the sgRNA enrichment factor serves as a measure of the increased fluorescence of the PTC(+) Fireworks reporter achieved by that sgRNA. The top 24 most abundant sgRNAs (of 64,751 sgRNAs originally present in the GeCKO library), which attained enrichment scores higher than 10, are listed in Table 1 along with their intended (Shalem et al., Science 2014, 343:84-87) gene targets.

human NMD [2] = test: FACS analysis of green fluorescence of the PTC(+) GFP reporter in the "red" Fireworks cell line after NMD inhibition; assay type: cell-based; details: FIG. 7B
Text: Sixteen of the most abundant individual sgRNAs (Table 1), whose enrichment scores in the 2nd round exceeded 10.0, were individually cloned into linearized Lt-CRISPR vector and lentivirally transduced into the “green” Fireworks cell line. Resulting cells were propagated for 11 days (or 21 days for AVEN sgRNA) and FACS-analyzed to observe an increase in […] fluorescence of the PTC(+) Fireworks reporter. Indeed, the vast majority of sgRNAs reproduced the shift when tested individually. RPS8 and AVEN were targeted with shRNAs (sh22: 5′[…] GTTTTTTG3′ (SEQ ID NO: 8) and sh01: 5′[…] CTTTTTTG3′ (SEQ ID NO: 9) for RPS8 and AVEN, respectively) cloned into the pLKO.1 vector (Moffat et al., Cell 2006, 124:1283-1298) that was used to transduce “green” and “red” Fireworks cells followed by FACS-analysis to observe effects of mRNA knockdown on fluorescence of the PTC(+) reporters.
The Fireworks approach provides the ability to perform forward genetic screens for human NMD factors at the speed of a FACS sorter. As designed, orthogonal Fireworks cell lines respond as expected to the introduction of a stop codon (PTC39) (Zhang et al., RNA 1998, 4:801-815) into the β-globin sequence by a 7- to 9-fold reduction in the reporter's fluorescence (FIGS. 1C, 1D and 2C). PTC39, which is upstream of the last intron in the β-globin pre-mRNA, induces NMD of the Fireworks reporter mRNA. […]

| Substance | sgRNA abundance (%) (human NMD [1]) | sgRNA enrichment (2nd round) (human NMD [1]) | green fluorescence of the "red" Fireworks cell line after shRNA transduction (human NMD [2]) |
| --- | --- | --- | --- |
| 10 (TGATTACGTCCTCCACCTCG; expressed or natural sequence) [compound 10] | 1.081 | 47.0 | – |
| 11 (AGGTCCACTCACCATTGGAG; expressed or natural sequence) [compound 11] | 0.888 | 113.9 | – |
| 12 (AGTGTCCTCCTTAGCTCTGC; expressed or natural sequence) [compound 12] | 0.872 | 118.7 | – |
| 13 (AGTGTCCTCCTTAGCTCTGC; expressed or natural sequence) [compound 13] | 0.440 | 33.8 | – |
| 14 (GTTCTCTGATAATCAGAATG; expressed or natural sequence) [compound 14] | 0.439 | 14.7 | – |
| 15 (ACGCACCTGGTTGCTGGTAT; expressed or natural sequence) [compound 15] | 0.265 | 54.7 | – |
| 16 (GGATGACCAAGACGACATCA; expressed or natural sequence) [compound 16] | 0.262 | 18.3 | – |
| 17 (CTATGAGGGGGTCAGTGACA; expressed or natural sequence) [compound 17] | 0.232 | 18.3 | – |
| 18 (TGAGCACATACTCTTCACAC; expressed or natural sequence) [compound 18] | 0.180 | 102.2 | – |
| 19 (CCGTGACATCACAGACCCGT; expressed or natural sequence) [compound 19] | 0.176 | 21.2 | – |
| 20 (CGCATTGAAAACGTTTGCCG; expressed or natural sequence) [compound 20] | 0.153 | 18.4 | – |
| 21 (GGTACCTTCACTGGAGCCAC; expressed or natural sequence) [compound 21] | 0.132 | 16.1 | – |
| 22 (TATGTCTTACCAGAAGCTGC; expressed or natural sequence) [compound 22] | 0.132 | 23.3 | – |
| 23 (CTCAACCGATTCCTTAGACG; expressed or natural sequence) [compound 23] | 0.125 | 19.5 | – |
| 24 (TCACGCTTCACGCTGACAGT; expressed or natural sequence) [compound 24] | 0.083 | 80.0 | – |
| 25 (TGCTTTGTGTTTCTTTACAC; expressed or natural sequence) [compound 25] | 0.083 | 17.0 | – |
| 26 (TTAGCATCAGCTACTGCCAG; expressed or natural sequence) [compound 26] | 0.076 | 14.2 | – |
| 27 (GAAAGACTGAGGAGCTGCTG; expressed or natural sequence) [compound 27] | 0.062 | 38.0 | – |
| 28 (TTCAAACTAGTAAGCAACAC; expressed or natural sequence) [compound 28] | 0.054 | 18.4 | – |
| 29 (TAAGTTGTCAGAAAACATGA; expressed or natural sequence) [compound 29] | 0.054 | 17.1 | – |
| 30 (TCACATCGGCAGCCACCCGT; expressed or natural sequence) [compound 30] | 0.043 | 30.7 | – |
| 31 (GCGCCCAGCTGCCAACACCA; expressed or natural sequence) [compound 31] | 0.036 | 53.9 | – |
| 32 (AGCCCATAATGTACCAGTGC; expressed or natural sequence) [compound 32] | 0.033 | 14.4 | – |
| 33 (TACCTATGTGCGTCAGCAGC; expressed or natural sequence) [compound 33] | 0.023 | 49.5 | – |
| CCGGCCGTGCCCTGAGGTTGGACGTCTCGAGACGTCCAACCTCAGGGCACG GTTTTTTG (guide CCGGCCGTGCCCTGAGGTTGGACGTCTCGAGACGTCCAACCTCAGGGCACGGTTTTTTG; expressed or natural sequence) [RPS8-targeting shRNA, shRNA targeting RPS8 cloned into the pLKO.1 vector] | – | – | increase in green fluorescence |
